Measurements from patent publication US5932580A, “PDGF receptor kinase inhibitory compounds their preparation and compositions” (priority 1997, dated 1999).
pIC50: −log10 of the molar value. “Also recorded” adds a separate entry of the source. Like-named read-outs stand apart in the source and are kept apart here.

Columns and labels:
[1] = tested on: porcine aorta endothelial cells (EC); conditions: read-out: 50% inhibitory concentration, PDGF receptor kinase and PDGF dependent DNA synthesis; cited from earlier work
[2] = tested on: src-transformed NIH 3T3 cells; conditions: cited from earlier work
[3] = tested on: sis-transfected NIH 3T3 cells; conditions: cited from earlier work
Swiss 3T3 cells = conditions: read-out: 50% inhibitory concentration, PDGF receptor kinase and PDGF dependent DNA synthesis; cited from earlier work
[4] = tested on: porcine aortic endothelial cells; conditions: cited from earlier work
[5] = tested on: DNA synthesis stimulated by insulin, by epidermal growth factor, or by a combination of both; conditions: cited from earlier work
human PDGF α-receptor = conditions: cited from earlier work
[6] = tested on: stem cell factor receptor (c-Kit); conditions: cited from earlier work
[7] = tested on: epidermal growth factor receptor; conditions: cited from earlier work
p60c-src(F527) = conditions: cited from earlier work
[8] = tested on: vascular endothelial growth factor receptor KDR; conditions: cited from earlier work
human PDGF β-receptor = conditions: cited from earlier work
[9] = tested on: fibroblast growth factor-dependent DNA synthesis; conditions: relative to PDGF dependent DNA synthesis; cited from earlier work
neointimal formation = conditions: controlled local delivery; rat carotid balloon injury model; cited from earlier work
PDGF β-receptor = biological target: T1, PDGF β-receptor (Sus scrofa, UniProt F1RL75); assay: PDGF induced PDGFR autophosphorylation in intact SMC cells; assay type: cell-based; conditions: porcine arterial SMC
T1 construct: PDGF-BB stimulated; immunoprecipitated with PDGF beta-receptor specific antiserum R3
T1 sequence (F1RL75 109-1181): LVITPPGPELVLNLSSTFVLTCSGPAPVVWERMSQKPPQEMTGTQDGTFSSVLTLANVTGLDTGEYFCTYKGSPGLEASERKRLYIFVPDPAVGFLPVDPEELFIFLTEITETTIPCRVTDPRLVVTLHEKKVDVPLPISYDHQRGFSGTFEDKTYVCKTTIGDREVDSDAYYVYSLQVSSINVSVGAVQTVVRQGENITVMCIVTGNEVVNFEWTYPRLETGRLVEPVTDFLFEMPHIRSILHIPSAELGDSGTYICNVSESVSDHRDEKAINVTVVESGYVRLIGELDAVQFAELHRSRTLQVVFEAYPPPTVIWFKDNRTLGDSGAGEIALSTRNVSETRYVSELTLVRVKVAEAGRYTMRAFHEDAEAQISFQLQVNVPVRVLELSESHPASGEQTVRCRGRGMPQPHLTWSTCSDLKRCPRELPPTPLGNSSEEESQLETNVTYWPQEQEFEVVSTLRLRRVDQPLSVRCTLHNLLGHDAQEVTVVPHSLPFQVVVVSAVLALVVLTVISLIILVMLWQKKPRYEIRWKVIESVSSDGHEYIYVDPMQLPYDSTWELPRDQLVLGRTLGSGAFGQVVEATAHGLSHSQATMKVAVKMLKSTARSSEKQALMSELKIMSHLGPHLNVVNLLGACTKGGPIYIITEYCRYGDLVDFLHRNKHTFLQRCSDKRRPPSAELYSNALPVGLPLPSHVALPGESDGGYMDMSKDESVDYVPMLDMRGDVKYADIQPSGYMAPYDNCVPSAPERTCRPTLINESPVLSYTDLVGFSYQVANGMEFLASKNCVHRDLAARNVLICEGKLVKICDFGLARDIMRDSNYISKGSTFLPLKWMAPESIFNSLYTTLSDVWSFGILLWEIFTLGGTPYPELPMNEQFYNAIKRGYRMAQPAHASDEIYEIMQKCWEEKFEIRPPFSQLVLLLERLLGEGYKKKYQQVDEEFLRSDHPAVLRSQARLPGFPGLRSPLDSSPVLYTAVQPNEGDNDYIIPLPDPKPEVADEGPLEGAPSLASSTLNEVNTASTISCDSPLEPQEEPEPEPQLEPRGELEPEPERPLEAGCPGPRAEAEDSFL
Description: Effect of tyrphostins on PDGF induced PDGFR autophosphorylation in intact SMC cells: Subconfluent porcine arterial smooth muscle cells, cultivated in Dulbecco's modified Eagle's medium (DMEM) supplemented with 15% fetal calf serum (FCS), were synchronized for 20 hours in a medium containing 2% FCS. […] After stimulation, the cells were solubilized in Nonidet P-40 (1%) containing lysis buffer.
The analysis of PDGF p-receptor phosphorylation was performed as follows. Cell lysates were subjected to immunoprecipitation using the PDGF β-receptor specific antiserum R3 [5]. The percipitates were subjected to polyacrylamide (7.5%) gel electrophoresis in presence of sodium deducyl sulfate (SDS-PAGE) and were thereafter blotted onto a nitrocellulose membrane (Hybond C-EXTRA, Amersham). Phosphorylated proteins were detected by immunoblotting using the horseradish-peroxidase conjugated phosphotyrosine antibody RC20H (Transduction Laboratories), followed by chemoluminescence-based detection (ECL, Amersham) and autoradiography.
Detection of receptor proteins was performed as follows. Cell lysates were subjected to immunoprecipitation using the PDGF β-receptor specific antiserum R3 [5], as described above, and the percipitates washed three times and thereafter subjected to SDS-PAGE (7.5%) and blotting onto a nitrocellulose membrane (Hybond C-EXTRA, Amersham). Receptor proteins were detected by immunoblotting using the horseradish-peroxidase conjugated donkey anti-rabbit antibody (Amersham), followed by chemoluminescence-based detection (ECL, Amersham) and autoradiography.

[10] = tested on: porcine endothelial cells (EC); assay: Inhibition of cell proliferation and recovery, porcine EC; assay type: cell-based; conditions: for inhibition at 10 µM: Sus scrofa, Endothelial cell
From the text: Endothelial cells (EC) were isolated from porcine carotid arteries. Using aseptic procedure, both common carotid arteries were isolated, and the distal end of each artery was cannulated through an arteriotomy and ligated. The arteries were then perfused with phosphate buffered saline (PBS) and the proximal end ligated isolating a 5-7 cm long blood-free portion of the artery. The isolated portion of each artery was filled with PBS containing calcium and magnesium and 0.1% collagenase (Boehringer Manneheim, Germany). The segments were excised and incubated for 10 min at 37° C. in sterile bottles containing PBS. […] Cells were seeded on fibronectin-coated dishes at a seeding density of 15,000 cells/well and incubated at 37° C. in 9% CO2. ECGS (25 μg/ml) was added every other day until confluence was observed, typically within 6-8 days.
(§1) Inhibition of cell proliferation and recovery: Monolayer cell growth inhibition and recovery experiments were repeated 3 or 4 times. Each experiment was performed in triplicate. […] Cultures were treated with a tyrphostin (10 μM) dissolved in 0.1% DMSO on days 1 and 3. On day 6, cultures were washed and the cells allowed to recover. Typically cells were counted on days 3 and 5 for inhibition, and on days 7, 10 and 15 for recovery, other schedules were also employed as reported below.

[11] = tested on: human internal mammary artery smooth muscle cells (IMA SMC); assay: Inhibition of cell proliferation and recovery, human IMA SMC; assay type: cell-based
From the text: (§2) Smooth muscle cells (SMC) were obtained under aseptic conditions from porcine abdominal aortas, and human internal mammary arteries (IMA). Specimens from the operating room were transferred on ice to the tissue culture room. Each artery was cut open and the endothelial surface mechanically scraped. The vessels were then cut into 2 mm^2 fragments which were placed in culture dishes with Dulbecco's modified Eagle's medium (DMEM) supplemented with 15% (v/v) fetal calf serum (FCS), 100 u/ml penicillin, 100 μg/ml streptomycin, and 0.2M L-glutamine. The tissue fragments were then placed in an incubator at 37° C. under 9% CO2 atmosphere until SMC outgrowth was detected (typically within 3-7 days). […] For experiments testing the effect of tyrphostins on growth inhibition and recovery (see below), SMC from passages 1-3 were replated in 15 mm wells pretreated with 3 μg/cm^2 fibronectin (Biological Industries, Kibbutz Beit Haemek, Israel) at 15,000 cells/well.
Inhibition of cell proliferation and recovery: Monolayer cell growth inhibition and recovery experiments were repeated 3 or 4 times. Each experiment was performed in triplicate. Approximately 15,000 cells (SMC or EC) in 1 ml of culture medium supplemented with 15% FCS were seeded on day 0 in 15 mm-wells precoated with fibronectin. Cultures were treated with a tyrphostin (10 μM) dissolved in 0.1% DMSO on days 1 and 3. On day 6, cultures were washed and the cells allowed to recover. Typically cells were counted on days 3 and 5 for inhibition, and on days 7, 10 and 15 for recovery, other schedules were also employed as reported below. The medium supplemented with serum (M-199 with ECGS for EC, and DMEM for SMC) was changed every other day throughout the experiment.
FIG. 9 presents the maximal inhibitory and recovery effects on human IMA SMC growth inflicted by 10 or 25 μM of AG1851 and AG1295. Cells were grown in the presence of the specified tyrphostins and were counted after seven days in culture. On day 7 the cultures were washed and the cells allowed to recover. Seven days later they were counted for recovery. The bar graph show the maximal inhibition and the recovery in each experiment and for controls.

[12] = tested on: porcine aortic smooth muscle cells (SMC); assay: Inhibition of cell proliferation and recovery, porcine SMC; assay type: cell-based; conditions: for inhibition at 10 µM: Sus scrofa
Description: as §2, with “The vessels were then cut into 2 mm^2 fragments which were placed in culture dishes with Dulbecco's modified Eagle's medium (DMEM) supplemented with 15% (v/v) fetal calf serum (FCS), 100 u/ml penicillin, 100 μg/ml streptomycin, and 0.2M L-glutamine.” left out
as §1

For `COc1cc2ncc(-c3ccccc3)nc2cc1OC` [AG1296], the pIC50 [1] is given as greater than 6.00, the “effect on src-transformed NIH 3T3 cells” value [2] is given as “no effect” and the “effect on transformed phenotype of sis-transfected NIH 3T3 cells” value [3] is given as “reverses the transformed phenotype”. The pIC50 (Swiss 3T3 cells) was greater than 5.30, the “effect on DNA synthesis induced by vascular endothelial growth factor” value [4] was “no effect” and the “effect on DNA synthesis stimulated by insulin, by epidermal growth factor, or by a combination of both” value [5] was “weak effects”. For the same molecule, the “inhibition of signalling of human PDGF α-receptor” value (human PDGF α-receptor) was “potently inhibits”, the “inhibition of signalling of stem cell factor receptor (c-Kit)” value [6] was “potently inhibits” and the “effect on epidermal growth factor receptor autophosphorylation” value [7] was “no effect”. The “effect on activity of the kinase p60c-src(F527) immunoprecipitated from src-transformed NIH 3T3 cells” value (p60c-src(F527)) was “no effect”, the “effect on autophosphorylation of KDR” value [8] was “no effect” and the “inhibition of signalling of human PDGF β-receptor” value (human PDGF β-receptor) was “potently inhibits”. For the same molecule, the “blocking effect on fibroblast growth factor-dependent DNA synthesis” value [9] was “over an order of magnitude weaker blocking effect”.
In the case of `CC(C)(C)c1cc(C=C(C#N)C#N)cc(C(C)(C)C)c1O` [AG17], the “inhibition of neointimal formation” value (neointimal formation) is listed as “effectively inhibits neointimal formation”.
For `Cc1cc2ncc(-c3ccccc3)nc2cc1C` [AG1295, reference compound], the pIC50 [1] is given as greater than 6.00, the “level of PDGF β-receptor protein present in the cells” value (PDGF β-receptor) is given as “without affecting the level” and the “inhibition of PDGF-BB induced PDGF β-receptor tyrosine-phosphorylation” value (PDGF β-receptor; tyrphostin 10 μM, 60 min preincubation, PDGF-BB 100 ng/ml) is given as “completely inhibited”. The “reversibility of the inhibitory effect on EC” value [10] was “completely reversible”, the inhibition at 10 µM ([10]; 72 h, by day 3, read-out: mean reduction of EC growth compared to controls) was roughly 10% and the inhibition at 10 µM ([10]; 120 h, by day 5, read-out: reduction of EC growth compared to controls) was 13.5%. The inhibition at 10 µM ([10]; FIG. 8 experiment, 10 μM, read-out: maximal inhibitory effect on porcine EC proliferation) was 22%, the pIC50 (Swiss 3T3 cells) was greater than 5.30 and the “reversibility of the effect on IMA SMC upon removal of the tyrphostin” value ([11]; 25 μM) was “completely reversible”. For the same molecule, the inhibition at 25 µM ([11]; Homo sapiens, 120 h, read-out: mean reduction / inhibition of IMA SMC proliferation compared to untreated or DMSO-treated cells) was 48%, the “effect on DNA synthesis stimulated by insulin, by epidermal growth factor, or by a combination of both” value [5] was “weak effects” and the “inhibitory effect on porcine SMC growth (in words)” value ([12]; 10 μM, FIGS. 3-7) was “very potent growth inhibition effect; also recorded: highly effective in blocking proliferation; also recorded: very effective proliferation inhibitors”. For the same molecule, the “toxicity on SMC” value ([12]; 10 μM, porcine SMC) was “low lasting toxicity”, the inhibition at 10 µM ([12]; 72 h, read-out: mean reduction in SMC count compared to DMSO treated control cells, 10 μM, by day 3) was 46% and the inhibition at 10 µM ([12]; 120 h, read-out: reduction in SMC count / inhibition of SMC growth over control, 10 μM, by day 5 (day given for AG1295 and AG1992)) was 78%. It also gave an inhibition at 10 µM ([12]; read-out: maximal inhibitory effect on porcine SMC proliferation, FIG. 6 experiment, 10 μM) of 65%, an inhibition at 10 µM ([12]; read-out: maximal inhibitory effect on porcine SMC proliferation, FIG. 7 experiment, 10 μM) of 81% and an inhibition at 10 µM ([12]; read-out: mean reduction in SMC count compared to control cells (maximal inhibition in SMC growth), Table 2, 10 μM) of 78%. For the same molecule, the “reversibility of the inhibitory effect / recovery of SMC growth after washout” value ([12]; porcine SMC, cultures washed, cells allowed to recover) was “completely reversible”, the “effect on epidermal growth factor receptor autophosphorylation” value [7] was “no effect” and the “blocking effect on fibroblast growth factor-dependent DNA synthesis” value [9] was “over an order of magnitude weaker blocking effect”.
